We go through eight compounds from patent US20260315464A1, “COMPOSITIONS, METHODS, AND SYSTEMS FOR MODULATING SPLICING OF MSH3” (REVIR THERAPEUTICS, INC., priority 2023, published 2026).

This test concerns MSH3. The experiment in a line: QPCR assay for levels of MSH3 upon compound treatment in HEK293T or AD293 cells (fold-change of MSH3 transcript, EC50 of MSH3 downregulation; total MSH3 exons 13/14, exons 20/21; Table 8). It counts as cell-based. The settings on record: Homo sapiens, fold-change of the MSH3 transcript, normalized to GAPDH; for mrna remaining at 1 µM: 1 μM compound; for mrna remaining at 10 µM: 10 μM compound. The gist of the method:
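MSH3 mRNA was quantified by TaqMan qPCR covering exons 13/14, exons 20/21, exon 13/PE14A and exon 20/PE21A, with GAPDH as reference. Cells used were HEK293T or AD293, treated with compound at 1 μM and […].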

The structures appear in SMILES notation.

Take `Cc1nn(C)nc1-c1cnc2c(c1)C(=O)N(c1ccc(N3CCC4(CCCN4)CC3)nn1)C2` [Compound 603, 6-(6-(1,8-diazaspiro[4.5]decan-8-yl)pyridazin-3-yl)-3-(2,5-dimethyl-2H-1,2,3-triazol-4-yl)-6,7-dihydro-5H-pyrrolo[3,4-b]pyridin-5-one]: the mrna remaining at 1 µM came to 155% and the mrna remaining at 10 µM was found to be 94%.

In the case of `CN(c1ccc(N2Cc3ncc(-c4cnn(CC(C)(C)O)c4)cc3C2=O)nn1)[C@H]1C[C@]2(C)CC[C@](C)(C1)N2` [Compound 604, 6-(6-(((1R,3s,5S)-1,5-dimethyl-8-azabicyclo[3.2.1]octan-3-yl)(methyl)amino)pyridazin-3-yl)-3-(1-(2-hydroxy-2-methylpropyl)-1H-pyrazol-4-yl)-6,7-dihydro-5H-pyrrolo[3,4-b]pyridin-5-one], the mrna remaining at 1 µM amounted to 63% and the mrna remaining at 10 µM was 93%.

`Cn1nc(Cl)c(-c2cnc3c(c2)C(=O)N(c2ccc(O[C@@H]4CCC(C)(C)NC(C)(C)C4)nn2)C3)n1` [Compound 605, (R)-3-(5-chloro-2-methyl-2H-1,2,3-triazol-4-yl)-6-(6-((2,2,7,7-tetramethylazepan-4-yl)oxy)pyridazin-3-yl)-6,7-dihydro-5H-pyrrolo[3,4-b]pyridin-5-one]: the mrna remaining at 1 µM worked out at 82% and the mrna remaining at 10 µM was determined as 56%.

Turning to `Cn1ncc(-c2cnc3c(c2)C(=O)N(c2ccc(S[C@H]4C[C@]5(C)CC[C@](C)(C4)N5)nn2)C3)n1` [Compound 606, 6-(6-(((1R,3s,5S)-1,5-dimethyl-8-azabicyclo[3.2.1]octan-3-yl)thio)pyridazin-3-yl)-3-(2-methyl-2H-1,2,3-triazol-4-yl)-6,7-dihydro-5H-pyrrolo[3,4-b]pyridin-5-one], the mrna remaining at 1 µM stood at 57% and the mrna remaining at 10 µM was found to be 25%.

In the case of `Cn1nc(Cl)c(-c2cnc3c(c2)C(=O)N(c2ccc(O[C@H]4CCC(C)(C)NC(C)(C)C4)nn2)C3)n1` [Compound 607, (S)-3-(5-chloro-2-methyl-2H-1,2,3-triazol-4-yl)-6-(6-((2,2,7,7-tetramethylazepan-4-yl)oxy)pyridazin-3-yl)-6,7-dihydro-5H-pyrrolo[3,4-b]pyridin-5-one], the mrna remaining at 1 µM came to 72% and the mrna remaining at 10 µM came out at 9%.

As to `Cn1cc(-c2cnc3c(c2)C(=O)N(c2ccc(OC4CC(C)(C)NC(C)(C)C4)nn2)C3)c(Cl)n1` [Compound 608, 3-(3-chloro-1-methyl-1H-pyrazol-4-yl)-6-(6-((2,2,6,6-tetramethylpiperidin-4-yl)oxy)pyridazin-3-yl)-6,7-dihydro-5H-pyrrolo[3,4-b]pyridin-5-one], the mrna remaining at 1 µM is 86% and the mrna remaining at 10 µM is 20%.

As for `CN(c1ccc(N2Cc3ncc(-c4cn(C)nc4Cl)cc3C2=O)nn1)[C@H]1C[C@]2(C)CC[C@](C)(C1)N2` [Compound 609, 3-(3-chloro-1-methyl-1H-pyrazol-4-yl)-6-(6-(((1R,3s,5S)-1,5-dimethyl-8-azabicyclo[3.2.1]octan-3-yl)(methyl)amino)pyridazin-3-yl)-6,7-dihydro-5H-pyrrolo[3,4-b]pyridin-5-one], the mrna remaining at 1 µM came out at 39% and the mrna remaining at 10 µM was 7%.

As to `Cn1nc(Cl)c(-c2cnc3c(c2)C(=O)N(c2ccc(S[C@H]4C[C@]5(C)CC[C@](C)(C4)N5)nn2)C3)n1` [Compound 610, 3-(5-chloro-2-methyl-2H-1,2,3-triazol-4-yl)-6-(6-(((1R,3s,5S)-1,5-dimethyl-8-azabicyclo[3.2.1]octan-3-yl)thio)pyridazin-3-yl)-6,7-dihydro-5H-pyrrolo[3,4-b]pyridin-5-one], the mrna remaining at 1 µM was determined as 93% and the mrna remaining at 10 µM was determined as 66%.
